Reference: patent US11926613B2, “Kinase inhibitors for the treatment of central and peripheral nervous system disorders” (UNIVERSITY OF MIAMI, priority 2017, dated 2024)
Where two headings read alike, the source gives them in different places.

What was measured:
Primary Neurons = assay: HCS neurite outgrowth assay (High Content Screening with Primary Neurons); format: cell-based
[1] = test system: neurons from hippocampi of E18 rat embryos; assay: Neurite growth length (% NTL) in cultured E18 rat hippocampal neurons, 9-point dose response, 48 hours; format: cell-based; conditions: for activity at 0.078 µM / activity at 0.156 µM / activity at 0.312 µM / activity at 0.625 µM / activity at 1.25 µM / activity at 2.5 µM / activity at 5 µM / activity at 10 µM / activity at 20 µM: Rattus norvegicus, Neuron, 48 h
Method: PRE-COATING CULTURE PLATES: On the day before the experiment, 96-well plates were pre-coated by plating 50 μl of Poly-D-lysine solution (PDL, 0.5 mg/mL) in each well. The next morning, the plates were washed four or five times with HBSS or PBS (150 μl/rinse), then left in buffer until cell plating
PREPARING THE CELLS: A timed pregnant rat carrying E18 embryos was euthanized using an IACUC approved method. In a laminar flow hood, the embryos were removed and placed in a petri dish containing Hank's Balanced Salt Solution (HBSS) with 20 mM HEPES, pH 7.3. Pup brains were dissected (see Meberg et al., 2003) and hippocampi were collected in 15 mL a conical tube containing Hibernate E with SM1 (2% v/v).
Dissociation media was prepared by combining 4.5 mL of Hibernate E (without SM1) with 0.5 mL of trypsin and 100 μl of DNAse solution. The medium over the hippocampi was carefully removed and replaced with dissociation solution, then incubated at 37° C. for 15-20 minutes, occasionally swirling the tube.
Using flame polished cotton plugged Pasteur pipettes, the dissociation media was removed, and then 5 mL of Hibernate E containing SM1 were added. The tube was swirled to thoroughly wash the tissue. The tissue was allowed to settle to the bottom of the tube, and the rinse solution was carefully removed. This step was repeated 5 times to dilute out trypsin and DNAse and remove any debris from lysed cells.
The final rinse media was removed from the tube and 1 pipette-full (1-2 mL) of Hibernate E with SM1 was added. Using the flame-polished Pasteur pipette (pre-wetted with rinse media), the tube was triturated until all cells had dissociated and no visible chunks of tissue remained. Fewer than ten triturations were typically performed. The volume was adjusted to 8-12 mL using Hibernate E containing SM1, the well was mixed and cell concentration was determined.
PLATING: The cells were diluted in culture media (NbActiv4 Cell-culture media) to a final concentration of 10,000 cells/mL. The HBSS was aspirated from PDL coated plates, and 150 μL of cell solution was loaded in the middle 48 wells at 1500 cells per well. Water was loaded in the outer wells to decrease evaporation from edge wells. Cells were allowed to adhere for 2 hours in tissue culture incubator prior to treatment.
TREATMENT: Compounds were diluted to various concentrations to provide 9 dose response concentrations of 20 μM, 10 μM, 5, μM, 2.5 μM, 1.25 μM, 0.625 μM, 0.3125 μM, 0.15625 μM, and 0.078125 μM. The plates were cultured for 48 hours, exposed to the compound at the various dose response concentrations.
FIXING THE CULTURES: The culture medium was removed from the plates and immediately replaced with 100-200 μl of warm (37° C.) 4% paraformaldehyde (PFA) solution in phosphate-buffered saline (PBS). The cells were fixed for 15-20 minutes at room temperature, and then rinsed with PBS (200 μl/well×3).
STAINING AND IMAGING: The PBS was removed and replaced with 100 μl of blocking/permeabilization buffer (PBS, 0.2% fish gelatin, 0.03% Triton X-100, 0.02% NaN3), then incubated overnight at 4° C. To this was added 100 μl of primary antibody solution (mouse anti-Beta III tubulin in blocking buffer) and incubate overnight at 4° C. The wells were rinsed with PBS (200 μl×3), which was then removed and replaced with 100 μl of secondary antibody solution (Goat anti-mouse Alexa 488, 10 μg/ml Hoechst 33342, 0.2% fish gelatin, 0.02% azide, in PBS). The plate was shaken gently on a rotating shaker for 2 hours, then rinsed with PBS (200 μl×5).
The plate was imaged using a Cellomics ArrayScan VTI in 2 different channels for nuclear staining (Hoechst) and cell body/neurite staining (βIII-tubulin). Typically, nine fields per well were imaged with a 5× objective and automatically traced by the Neuronal Profiling Bioapplication. To get reproducible results, at least 200-300 valid neurons were measured per condition. […]

2-(4-(((3R,4R)-4-(isonicotinamido)pyrrolidin-3- yl)carbamoyl)benzoyl)-4-methoxyphenyl acetate [Example A89]
EC50 (Primary Neurons): 8.08 µM

2-(4-(((3R,4R)-4-(isonicotinamido)pyrrolidin-3- yl)carbamoyl)benzoyl)-4-methoxyphenyl benzoate [Example A87]
EC50 (Primary Neurons): 13.1 µM

O=C(N[C@@H]1CNC[C@H]1NC(=O)c1ccncc1)c1ccncc1 (stereo in doubt) [Example A10, N-[(3R,4R)-4-(pyridine-4-amido)pyrrolidin-3-yl]pyridine-4-carboxamide]
activity at 0.078 µM ([1]; 78 nM): 91.7%
activity at 0.156 µM ([1]; 156 nM): 91.2%
activity at 0.312 µM ([1]; 312 nM): 87.5%
activity at 0.625 µM ([1]; 625 nM): 88.2%
activity at 1.25 µM ([1]; 1.25 μM): 83.7%
activity at 2.5 µM ([1]; 2.5 μM): 82.9%
activity at 5 µM ([1]; 5 μM): 85.9%
activity at 10 µM ([1]; 10 μM): 86%
activity at 20 µM ([1]; 20 μM): 92.6%
EC50 (Primary Neurons; Primary neuron): 0.93 µM

O=C(N[C@@H]1CNC[C@H]1NC(=O)c1ccc(C(=O)c2ccccc2)cc1)c1ccncc1 (stereo in doubt) [Example A13, N-[(3R,4R)-4-(4-benzoylbenzamido)pyrrolidin-3-yl]pyridine-4-carboxamide]
activity at 0.078 µM ([1]; 78 nM): 99.5%
activity at 0.156 µM ([1]; 156 nM): 101%
activity at 0.312 µM ([1]; 312 nM): 97.7%
activity at 0.625 µM ([1]; 625 nM): 103%
activity at 1.25 µM ([1]; 1.25 μM): 106%
activity at 2.5 µM ([1]; 2.5 μM): 113%
activity at 5 µM ([1]; 5 μM): 120%
activity at 10 µM ([1]; 10 μM): 129%
activity at 20 µM ([1]; 20 μM): 147%
EC50 (Primary Neurons; Primary neuron): 4.96 µM

O=C(N[C@@H]1CNC[C@H]1NC(=O)c1ccncc1)c1ccccc1 (stereo in doubt) [Example A20, N-[(3R,4R)-4-benzamidopyrrolidin-3-yl]pyridine-4-carboxamide]
activity at 0.078 µM ([1]; 78 nM): 86.2%
activity at 0.156 µM ([1]; 156 nM): 81.5%
activity at 0.312 µM ([1]; 312 nM): 77.7%
activity at 0.625 µM ([1]; 625 nM): 86.1%
activity at 1.25 µM ([1]; 1.25 μM): 88.4%
activity at 2.5 µM ([1]; 2.5 μM): 90.2%
activity at 5 µM ([1]; 5 μM): 90.7%
activity at 10 µM ([1]; 10 μM): 93.8%
activity at 20 µM ([1]; 20 μM): 103%
EC50 (Primary Neurons; Primary neuron): 9.49 µM

COc1ccc(O)c(C(=O)c2ccc(C(=O)NC3CNC[C@H]3NC(=O)c3ccncc3)cc2)c1F (stereo in doubt) [Example A32, N-[(3R,4S)-4-[4-(2-fluoro-6-hydroxy-3-methoxybenzoyl)benzamido]pyrrolidin-3-yl]pyridine-4-carboxamide]
neurite growth length (% NTL) ([1]; 78 nM): 98.72 % NTL
neurite growth length (% NTL) ([1]; 156 nM): 86.89 % NTL
neurite growth length (% NTL) ([1]; 312 nM): 88.20 % NTL
neurite growth length (% NTL) ([1]; 625 nM): 84.61 % NTL
neurite growth length (% NTL) ([1]; 1.25 μM): 81.36 % NTL
neurite growth length (% NTL) ([1]; 2.5 μM): 90.59 % NTL
neurite growth length (% NTL) ([1]; 5 μM): 88.24 % NTL
neurite growth length (% NTL) ([1]; 10 μM): 82.90 % NTL
neurite growth length (% NTL) ([1]; 20 μM): 86.59 % NTL
EC50 (Primary Neurons): > 20 µM

COc1ccc(O)c(C(=O)c2ccc(C(=O)N[C@H]3CNC[C@@H]3NC(=O)c3ccncc3)cc2)c1F (stereo in doubt) [Example A34, N-[(3S,4S)-4-[4-(2-fluoro-6-hydroxy-3-methoxybenzoyl)benzamido]pyrrolidin-3-yl]pyridine-4-carboxamide]
neurite growth length (% NTL) ([1]; 78 nM): 102.90 % NTL
neurite growth length (% NTL) ([1]; 156 nM): 102.77 % NTL
neurite growth length (% NTL) ([1]; 312 nM): 92.06 % NTL
neurite growth length (% NTL) ([1]; 625 nM): 92.27 % NTL
neurite growth length (% NTL) ([1]; 1.25 μM): 95.84 % NTL
neurite growth length (% NTL) ([1]; 2.5 μM): 105.94 % NTL
neurite growth length (% NTL) ([1]; 5 μM): 110.06 % NTL
neurite growth length (% NTL) ([1]; 10 μM): 118.29 % NTL
neurite growth length (% NTL) ([1]; 20 μM): 130.91 % NTL
EC50 (Primary Neurons): 13 µM

COc1ccc(OC)c(C(=O)c2ccc(C(=O)Nc3ccncc3NC(=O)c3ccncc3)cc2)c1F [Example A1, N-{4-[4-(2-fluoro-3,6-dimethoxybenzoyl)benzamido]pyridin-3-yl}pyridine-4-carboxamide]
activity at 0.078 µM ([1]; 78 nM): 89.9%
activity at 0.156 µM ([1]; 156 nM): 89%
activity at 0.312 µM ([1]; 312 nM): 89.6%
activity at 0.625 µM ([1]; 625 nM): 91%
activity at 1.25 µM ([1]; 1.25 μM): 93.5%
activity at 2.5 µM ([1]; 2.5 μM): 85.8%
activity at 5 µM ([1]; 5 μM): 92.9%
activity at 10 µM ([1]; 10 μM): 87%
activity at 20 µM ([1]; 20 μM): 84.6%
EC50 (Primary Neurons; Primary neuron): 9.34 µM

COc1ccc(O)c(C(=O)c2ccc(C(=O)Nc3ccncc3NC(=O)c3ccncc3)cc2)c1F [Example A2, N-{4-[4-(2-fluoro-6-hydroxy-3-methoxybenzoyl)benzamido]pyridin-3-yl}pyridine-4-carboxamide]
activity at 0.078 µM ([1]; 78 nM): 93.8%
activity at 0.156 µM ([1]; 156 nM): 96.2%
activity at 0.312 µM ([1]; 312 nM): 84.6%
activity at 0.625 µM ([1]; 625 nM): 93%
activity at 1.25 µM ([1]; 1.25 μM): 88.9%
activity at 2.5 µM ([1]; 2.5 μM): 91.1%
activity at 5 µM ([1]; 5 μM): 94.1%
activity at 10 µM ([1]; 10 μM): 93.4%
activity at 20 µM ([1]; 20 μM): 100%
EC50 (Primary Neurons; Primary neuron): 1.81 µM

CCOc1ccc(O)c(C(=O)c2ccc(C(=O)N[C@@H]3CNC[C@H]3NC(=O)c3ccncc3)cc2)c1 [Example A90, N-((3R,4R)-4-(4-(5-ethoxy-2-hydroxybenzoyl)benzamido)pyrrolidin-3-yl)isonicotinamide]
EC50 (Primary Neurons; Primary neuron): 1.79 µM

O=C(N[C@@H]1CNC[C@H]1NC(=O)c1ccc(C(=O)c2cc(F)ccc2O)cc1)c1ccncc1 [Example A91, N-((3R,4R)-4-(4-(5-fluoro-2-hydroxybenzoyl)benzamido)pyrrolidin-3-yl)isonicotinamide]
EC50 (Primary Neurons; Primary neuron): 3.41 µM

O=C(N[C@@H]1CNC[C@H]1NC(=O)c1ccc(C(=O)c2cc(-c3ccccc3)ccc2O)cc1)c1ccncc1 [Example A93, N-((3R,4R)-4-(4-(4-hydroxy-[1,1′-biphenyl]-3-carbonyl)benzamido)pyrrolidin-3-yl)isonicotinamide]
EC50 (Primary Neurons; Primary neuron): 13.3 µM

COc1ccc(O)c(C(=O)c2ccc(C(=O)N[C@@H]3CCCNC[C@H]3NC(=O)c3ccncc3)cc2)c1F [Example A94, N-((3R,4R)-4-(4-(2-fluoro-6-hydroxy-3-methoxybenzoyl)benzamido)azepan-3-yl)isonicotinamide]
EC50 (Primary Neurons; Primary neuron): 0.813 µM

CCc1ccc(O)c(C(=O)c2ccc(C(=O)N[C@@H]3CNC[C@H]3NC(=O)c3ccncc3)cc2)c1 [Example A95, N-((3R,4R)-4-(4-(5-ethyl-2-hydroxybenzoyl)benzamido)pyrrolidin-3-yl)isonicotinamide]
EC50 (Primary Neurons; Primary neuron): 9.77 µM

O=C(N[C@@H]1CNC[C@H]1NC(=O)c1ccc(C(=O)c2cc(OC(F)(F)F)ccc2O)cc1)c1ccncc1 [Example A96, N-((3R,4R)-4-(4-(2-hydroxy-5-(trifluoromethoxy)benzoyl)benzamido)pyrrolidin-3-yl)isonicotinamide]
EC50 (Primary Neurons; Primary neuron): 1.45 µM

O=C(N[C@@H]1CNC[C@H]1NC(=O)c1ccc(C(=O)c2cc(OCc3ccccc3)ccc2O)cc1)c1ccncc1 [Example A97, N-((3R,4R)-4-(4-(5-(benzyloxy)-2-hydroxybenzoyl)benzamido)pyrrolidin-3-yl)isonicotinamide]
EC50 (Primary Neurons; Primary neuron): 11.3 µM

CC(C)(C)Oc1ccc(O)c(C(=O)c2ccc(C(=O)N[C@@H]3CNC[C@H]3NC(=O)c3ccncc3)cc2)c1 [Example A98, N-((3R,4R)-4-(4-(5-(tert-butoxy)-2-hydroxybenzoyl)benzamido)pyrrolidin-3-yl)isonicotinamide]
EC50 (Primary Neurons; Primary neuron): 9.97 µM

O=C(N[C@@H]1CNC[C@H]1NC(=O)c1ccc(C(=O)c2cc(C(F)(F)F)ccc2O)cc1)c1ccncc1 [Example A99, N-((3R,4R)-4-(4-(2-hydroxy-5-(trifluoromethyl)benzoyl)benzamido)pyrrolidin-3-yl)isonicotinamide]
EC50 (Primary Neurons; Primary neuron): 2.36 µM
